{
  "source": "patent US9242981B2",
  "about": "“Fused pyrazole derivatives as novel ERK inhibitors” (Merck Sharp & Dohme Corp., priority 2010, dated 2016)",
  "data": [
    {"biological_target": "Mouse ERK2 protein (Mus musculus (Mouse), UniProt P63085)", "sequence (P63085 whole entry)": "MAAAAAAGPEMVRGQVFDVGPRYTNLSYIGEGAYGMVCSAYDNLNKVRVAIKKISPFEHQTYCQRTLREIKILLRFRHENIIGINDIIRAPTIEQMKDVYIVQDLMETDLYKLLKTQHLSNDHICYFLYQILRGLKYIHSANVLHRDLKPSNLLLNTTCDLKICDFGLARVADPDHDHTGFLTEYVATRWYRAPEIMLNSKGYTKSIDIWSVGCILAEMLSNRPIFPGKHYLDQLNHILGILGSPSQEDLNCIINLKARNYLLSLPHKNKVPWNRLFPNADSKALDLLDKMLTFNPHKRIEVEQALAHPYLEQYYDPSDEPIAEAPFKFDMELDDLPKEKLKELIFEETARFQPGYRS", "experiment": "Coupled MEK1/ERK2 IMAP assay or Active ERK2 IMAP assay", "format": "biochemical", "settings": "Table 1, class symbols, 30 μM ATP", "units": {"IC50": "nM"}, "values": [
      {"molecule": "CC1(C(=O)Nc2ccccc2OC(F)(F)F)CCc2[nH]nc(-c3ccncc3)c2C1", "note": "(stereo not shown) [Compound 17, 4,5,6,7-tetrahydro-5-methyl-3-(4-pyridinyl)-N-[2-(trifluoromethoxy)phenyl]-1H-indazole-5-carboxamide]", "IC50": "1000 to 100000"},
      {"molecule": "Cc1nc2ccc(-c3n[nH]c4c3CN(C(=O)N[C@@H]3CCCN(Cc5ccccc5)C3)CC4)cc2o1", "note": "[Compound 185, 1,4,6,7-tetrahydro-3-(2-methyl-6-benzoxazolyl)-N-[1-(phenylmethyl)-3(R)-piperidinyl]-5H-pyrazolo[4,3-c]pyridine-5-carboxamide]", "IC50": "21 to 100"},
      {"molecule": "CN1C[C@@H](NC(=O)N2CCc3[nH]nc(-c4ccc(F)cc4)c3C2)[C@H](c2ccccc2C(F)(F)F)C1", "note": "(racemic) [Compound 151, 3-(4-fluorophenyl)-1,4,6,7-tetrahydro-N-[trans-1-methyl-4-[2-(trifluoromethyl)phenyl]-3-pyrrolidinyl]-5H-pyrazolo[4,3-c]pyridine-5-carboxamide]", "IC50": "< 20"},
      {"molecule": "CN(C)c1ccc(CC(=O)N2CCc3[nH]nc(-c4ccncc4)c3C2)cc1", "note": "[Compound 22, 5[[4-(dimethylamino)-phenyl]acetyl]-4,5,6,7-tetrahydro-3-(4-pyridinyl)-1H-pyrazolo[4,3-c]pyridine]", "IC50": "101 to 1000"},
      {"molecule": "Cc1nc2ccc(-c3n[nH]c4c3CN(C(=O)N[C@@H]3CCCN(Cc5csc6ccccc56)C3)CC4)cc2o1", "note": "[Compound 189, N-[1-(benzo[b]thien-3-ylmethyl)-3(R)-piperidinyl]-1,4,6,7-tetrahydro-3-(2-methyl-6-benzoxazolyl)-5H-pyrazolo[4,3-c]pyridine-5-carboxamide]", "IC50": "< 20"},
      {"molecule": "Cc1nc2cc(-c3n[nH]c4c3CN(C(=O)N[C@@H]3CCCN(Cc5cn(C)c6ccccc56)C3)CC4)ccc2o1", "note": "[Compound 148, 1,4,6,7-tetrahydro-3-(2-methyl-5-benzoxazolyl)-N-[1-[(1-methyl-1H-indol-3-yl)methyl]-3(R)-piperidinyl]-5H-pyrazolo[4,3-c]pyridine-5-carboxamide]", "IC50": "21 to 100"},
      {"molecule": "CN1CC(NC(=O)N2CCc3[nH]nc(-c4ccncc4)c3C2)CC(c2ccccc2)C1", "note": "(stereo not shown) [Compound 49, 1,4,6,7-tetrahydro-N-(1-methyl-5-phenyl-3-piperidinyl)-3-(4-pyridinyl)-5H-pyrazolo[4,3-c]pyridine-5-carboxamide]", "IC50": "< 20"},
      {"molecule": "Cc1cc(-c2n[nH]c3c2CN(C(=O)N[C@@H]2CC[C@H]4CC[C@@H]2N4Cc2ccccc2F)CC3)ccn1", "note": "[Compound 168, N-[exo-8-[(2-fluorophenyl)methyl]-8-azabicyclo[3.2.1]oct-2-yl]-1,4,6,7-tetrahydro-3-(2-methyl-4-pyridinyl)-5H-pyrazolo[4,3-c]pyridine-5-carboxamide]", "IC50": "< 20"},
      {"molecule": "Cc1cccc(C)c1CN1CCC[C@@H](NC(=O)N2CCc3[nH]nc(-c4ccc5c(cnn5C)c4)c3C2)C1", "note": "[Compound 127, N-[1-[(2,6-dimethylphenyl)-methyl]-3(R)-piperidinyl]-1,4,6,7-tetrahydro-3-(1-methyl-1H-inclazol-5-yl)-5H-pyrazolo[4,3-c]pyridine-5-carboxamide]", "IC50": "< 20"},
      {"molecule": "CN(C)CCOc1ccccc1NC(=O)C1(C)CCc2[nH]nc(-c3ccncc3)c2C1", "note": "(stereo not shown) [Compound 19, N-[2-[2-(dimethylamino)-ethoxy]phenyl]-4,5,6,7-tetrahydro-5-methyl-3-(4-pyridinyl)-1H-indazole-5-carboxamide]", "IC50": "1000 to 100000"},
      {"molecule": "COc1cccc(F)c1CN1CCC[C@@H](NC(=O)N2CCc3[nH]nc(-c4ccc5nc(C)sc5c4)c3C2)C1", "note": "[Compound 170, N-[1-[(2-fluoro-6-methoxyphenyl)methyl]-3(R)-piperidinyl]-1,4,6,7-tetrahydro-3-(2-methyl-6-benzothiazolyl)-5H-pyrazolo[4,3-c]pyridine-5-carboxamide]", "IC50": "< 20"},
      {"molecule": "Cc1cc(-c2n[nH]c3c2CN(C(=O)N[C@@H]2CCN(Cc4c(C)cccc4C)C2)CC3)ccn1", "note": "[Compound 119, N-[1-[(2,6-dimethylphenyl)-methyl]-3(R)-pyrrolidinyl]-1,4,6,7-tetrahydro-3-(2-methyl-4-pyridinyl)-5H-pyrazolo[4,3-c]pyridine-5-carboxamide]", "IC50": "21 to 100"},
      {"molecule": "O=C(Cc1cccnc1)N1CCc2[nH]nc(-c3ccncc3)c2C1", "note": "[Compound 25, 4,5,6,7-tetrahydro-3-(4-pyridinyl)-5-(3-pyridinylacetyl)-1H-pyrazolo[4,3-c]pyridine]", "IC50": "101 to 1000"},
      {"molecule": "O=C(N[C@@H]1CNC[C@H]1c1cccc(-c2ccccc2)c1)N1CCc2[nH]nc(-c3ccncc3)c2C1", "note": "(racemic) [Compound 167, N-[trans-4-[1,1′-biphenyl]-3-yl-3-pyrrolidinyl]-1,4,6,7-tetrahydro-3-(4-pyridinyl)-5H-pyrazolo[4,3-c]pyridine-5-carboxamide]", "IC50": "< 20"},
      {"molecule": "O=C(N[C@@H]1CCCN(Cc2ccsc2)C1)N1CCc2[nH]nc(-c3ccncc3)c2C1", "note": "[Compound 56, 1,4,6,7-tetrahydro-3-(4-pyridinyl)-N-[1-(3-thienylmethyl)-3(R)-piperidinyl]-5H-pyrazolo[4,3-c]pyridine-5-carboxamide]", "IC50": "< 20"},
      {"molecule": "Cc1cc(-c2n[nH]c3c2CN(C(=O)N[C@H]2CC[C@H]4CC[C@@H]2N4Cc2ccccc2F)CC3)ccn1", "note": "[Compound 166, N-[endo-8-[(2-fluorophenyl)methyl]-8-azabicyclo[3.2.1]oct-2-yl]-1,4,6,7-tetrahydro-3-(2-methyl-4-pyridinyl)-5H-pyrazolo[4,3-c]pyridine-5-carboxamide]", "IC50": "101 to 1000"}
    ]}
  ]
}
